Results published in ChEMBL document CHEMBL1133452, “Identification of novel purine and pyrimidine cyclin-dependent kinase inhibitors with distinct molecular interactions and tumor cell growth inhibition profiles” (J Med Chem, 2000).

Tests used:
[1] = target: Cyclin-dependent kinase 2 (Homo sapiens, UniProt P24941); assay: Inhibition of Cyclin-dependent kinase 2 enzyme from starfish oocytes; design: species or system Marthasterias glacialis, Oocyte
NCI = assay: cells; conditions: Homo sapiens, read-out: Mean GI50
Description: Inhibition of NCI cell line proliferation

[2] = target: Cyclin-dependent kinase 1/cyclin B (Homo sapiens, UniProt O95067+P06493+P14635+Q8WWL7); assay: Inhibition of Cyclin-dependent kinase 1 enzyme from starfish oocytes; design: species or system Marthasterias glacialis, Oocyte
Sequence of Cyclin-dependent kinase 1/cyclin B (P06493 whole entry): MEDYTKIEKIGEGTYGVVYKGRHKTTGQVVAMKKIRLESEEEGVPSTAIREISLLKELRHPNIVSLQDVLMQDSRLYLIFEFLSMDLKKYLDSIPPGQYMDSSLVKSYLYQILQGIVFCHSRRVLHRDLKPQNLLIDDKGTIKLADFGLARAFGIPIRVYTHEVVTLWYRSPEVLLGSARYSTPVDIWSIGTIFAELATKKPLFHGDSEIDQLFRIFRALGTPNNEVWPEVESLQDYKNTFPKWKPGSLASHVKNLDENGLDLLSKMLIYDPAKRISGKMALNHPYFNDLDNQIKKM
Sequence of Cyclin-dependent kinase 1/cyclin B (P14635 whole entry): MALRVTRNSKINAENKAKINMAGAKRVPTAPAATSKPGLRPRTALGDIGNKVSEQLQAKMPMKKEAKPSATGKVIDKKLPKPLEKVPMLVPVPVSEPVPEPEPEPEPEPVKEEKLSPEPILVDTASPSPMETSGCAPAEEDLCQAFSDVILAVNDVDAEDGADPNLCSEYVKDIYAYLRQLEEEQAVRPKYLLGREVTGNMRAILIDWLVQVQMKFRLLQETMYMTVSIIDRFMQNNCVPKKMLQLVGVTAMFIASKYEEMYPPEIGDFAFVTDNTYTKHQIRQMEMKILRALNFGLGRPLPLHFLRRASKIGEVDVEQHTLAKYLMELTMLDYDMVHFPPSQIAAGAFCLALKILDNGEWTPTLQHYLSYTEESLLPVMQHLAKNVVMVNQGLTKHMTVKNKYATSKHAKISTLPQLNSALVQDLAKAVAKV
Sequence of Cyclin-dependent kinase 1/cyclin B (Q8WWL7 whole entry): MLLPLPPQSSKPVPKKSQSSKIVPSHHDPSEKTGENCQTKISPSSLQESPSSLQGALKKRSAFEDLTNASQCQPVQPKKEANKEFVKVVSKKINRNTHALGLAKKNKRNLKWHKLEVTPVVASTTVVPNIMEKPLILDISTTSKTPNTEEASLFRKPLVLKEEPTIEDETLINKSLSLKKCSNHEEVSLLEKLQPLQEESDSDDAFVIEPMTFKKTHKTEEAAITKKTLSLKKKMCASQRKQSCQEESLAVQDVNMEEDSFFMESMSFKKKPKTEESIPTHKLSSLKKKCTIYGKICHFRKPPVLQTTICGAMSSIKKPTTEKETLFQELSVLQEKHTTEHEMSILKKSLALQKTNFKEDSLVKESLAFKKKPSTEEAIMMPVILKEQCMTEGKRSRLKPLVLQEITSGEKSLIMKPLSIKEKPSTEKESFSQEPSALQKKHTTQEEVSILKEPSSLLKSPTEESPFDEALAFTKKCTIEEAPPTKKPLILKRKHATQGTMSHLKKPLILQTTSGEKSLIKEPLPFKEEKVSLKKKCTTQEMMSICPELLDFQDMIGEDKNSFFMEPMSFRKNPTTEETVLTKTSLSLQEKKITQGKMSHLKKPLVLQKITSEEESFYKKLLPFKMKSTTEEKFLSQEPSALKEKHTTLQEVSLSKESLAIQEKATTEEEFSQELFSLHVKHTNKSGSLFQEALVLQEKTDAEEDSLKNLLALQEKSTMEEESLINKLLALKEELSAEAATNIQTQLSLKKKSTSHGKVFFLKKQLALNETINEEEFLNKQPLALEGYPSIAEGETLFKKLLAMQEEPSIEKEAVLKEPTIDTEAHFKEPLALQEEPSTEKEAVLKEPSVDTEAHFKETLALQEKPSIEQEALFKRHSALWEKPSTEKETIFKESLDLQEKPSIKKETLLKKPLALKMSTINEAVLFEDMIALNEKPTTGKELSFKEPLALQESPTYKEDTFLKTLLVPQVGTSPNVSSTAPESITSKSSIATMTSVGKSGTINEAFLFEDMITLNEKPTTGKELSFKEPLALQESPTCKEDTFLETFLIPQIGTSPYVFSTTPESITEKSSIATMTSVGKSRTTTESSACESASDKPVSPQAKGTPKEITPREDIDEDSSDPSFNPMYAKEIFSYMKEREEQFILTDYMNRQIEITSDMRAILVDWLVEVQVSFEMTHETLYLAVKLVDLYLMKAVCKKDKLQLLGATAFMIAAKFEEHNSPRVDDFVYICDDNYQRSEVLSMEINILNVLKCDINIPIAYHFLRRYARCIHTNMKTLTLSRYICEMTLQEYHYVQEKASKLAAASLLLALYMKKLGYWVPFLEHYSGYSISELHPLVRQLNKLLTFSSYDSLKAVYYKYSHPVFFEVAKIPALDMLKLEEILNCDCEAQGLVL
Sequence of Cyclin-dependent kinase 1/cyclin B (O95067 whole entry): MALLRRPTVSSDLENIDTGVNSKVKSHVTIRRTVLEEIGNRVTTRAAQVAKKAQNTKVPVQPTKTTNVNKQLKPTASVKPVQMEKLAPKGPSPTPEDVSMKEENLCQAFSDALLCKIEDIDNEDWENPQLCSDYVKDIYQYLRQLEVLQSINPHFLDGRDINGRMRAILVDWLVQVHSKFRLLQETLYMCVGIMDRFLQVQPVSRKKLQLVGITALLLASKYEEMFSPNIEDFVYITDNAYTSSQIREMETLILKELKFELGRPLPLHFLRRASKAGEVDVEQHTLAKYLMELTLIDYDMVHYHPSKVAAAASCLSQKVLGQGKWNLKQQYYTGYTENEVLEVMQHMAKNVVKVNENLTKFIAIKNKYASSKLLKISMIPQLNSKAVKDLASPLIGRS

Row | IC50 [1] | IC50 [2] | Structure (SMILES) | GI50 (NCI)
1 | > 100 µM |  | Cn1cnc2c(OCC3CCCCC3)nc(N)nc21 | > 100 µM
2 | > 10 µM | > 10 µM | Nc1cc(OCC2CCCCC2)nc(N)n1 | > 100 µM
3 | 13 µM |  | c1nc(OCC2CCCCC2)c2nc[nH]c2n1 | 55 µM
